Entries after “also recorded” stand apart in the source; their conditions may differ. Like-named read-outs stand apart in the source and are kept apart here.
Columns and labels:
[1] = tested on: patients with primary aldosteronism
Description: (§1) A double-blind, randomized, Phase 2 trial was conducted between November 2019 and June 2022 at 11 centres in Italy, Switzerland and the Netherlands (NCT04007406). […] Patients requiring fixed-dose antihypertensive therapy continued treatment throughout the study; steroid therapies, β-adrenergic and renin-angiotensin-aldosterone system blockers were not permitted. At 14-day intervals, office blood pressures were recorded and blood samples were taken for measurement of steroid and peptide hormones and electrolytes at a central laboratory.
The urinary content of tetrahydroaldosterone (THA) was measured centrally by gas chromatography-coupled mass spectrometry (GC-MS).

[2] = tested on: patients with primary aldosteronism; remark: listed apart in the source
Description: as §1
Plasma aldosterone and plasma renin concentration were measured centrally under GCP regulations using the Liaison® chemiluminescent immunoassay kit supplied by DiaSorin S.p.A. Italy. The system used specific monoclonal antibodies to prevent cross reactions with other major potential reactants in the serum samples. The monoclonal antibodies directed against specific epitopes of the renin molecule allowed accurate and sensitive quantification. The assays were performed according to the instructions provided by the manufacturer. […] The analytical sensitivity was <0.97 ng/ml. […] The analytical sensitivity was <0.53 IU/mL.
(§2) For all efficacy endpoints, changes from baseline were calculated from linear models and accompanied by 95% confidence intervals and p values. Log-transformed values were used for changes in ARR. The full analysis set (FAS) and safety set were defined as all randomized patients who received at least one dose of study drug.

[3] = tested on: patients with primary aldosteronism; remark: listed apart in the source
Description: as §1
Blood pressure and pulse rate were measured at each visit after a >15-minute rest in sitting position. Blood pressure and pulse rate were measured using a locally calibrated and validated automated oscillometric device (e.g., Omron Healthcare). An adapted wrap cuff was placed on the dominant arm. Three repeat measurements with a 10-minute interval were recorded; the average of the 2nd and 3rd measurements were study relevant.
as §2

[4] = 4 mg once daily, n=10, Day 1 (baseline)
[5] = 8 mg once daily, n=12, Day 1 (baseline)
[6] = 12 mg once daily, n=13, Day 1 (baseline)
[7] = 4 mg once daily, n=10, Day 70 (after placebo withdrawal)
[8] = 8 mg once daily, n=12, Day 70 (after placebo withdrawal)
[9] = 12 mg once daily, n=13, Day 70 (so in the source)
[10] = Day 70, after 14-day placebo withdrawal

(R)-(+)-5-(p-cyanophenyl)-5,6,7,8-tetrahydroimidazolium[1,5-a]pyridine dihydrogen phosphate [dexfadrostat phosphate]
change in urine THA content from baseline to Day 56, mean ([1]; 4 mg once daily, n=10): −66.90 24 μg/24-hour | change in urine THA content from baseline to Day 56, median ([1]; 4 mg once daily, n=10): −61.00 24 μg/24-hour | urine tetrahydroaldosterone (THA) content, mean [1, 4]: 78.90 24 μg/24-hour | urine tetrahydroaldosterone (THA) content, median [1, 4]: 80.00 24 μg/24-hour | urine tetrahydroaldosterone (THA) content, mean ([1]; 4 mg once daily, n=10, Day 56): 12.00 24 μg/24-hour | urine tetrahydroaldosterone (THA) content, median ([1]; 4 mg once daily, n=10, Day 56): 11.50 24 μg/24-hour | change in urine THA content from baseline to Day 56, mean ([1]; 8 mg once daily, n=12): −63.00 24 μg/24-hour | change in urine THA content from baseline to Day 56, median ([1]; 8 mg once daily, n=12): −50.00 24 μg/24-hour | urine tetrahydroaldosterone (THA) content, mean [1, 5]: 71.67 24 μg/24-hour | urine tetrahydroaldosterone (THA) content, median [1, 5]: 59.50 24 μg/24-hour | urine tetrahydroaldosterone (THA) content, mean ([1]; 8 mg once daily, n=12, Day 56): 8.67 24 μg/24-hour | urine tetrahydroaldosterone (THA) content, median ([1]; 8 mg once daily, n=12, Day 56): 5.00 24 μg/24-hour | change in urine THA content from baseline to Day 56, mean ([1]; 12 mg once daily, n=13): −58.31 24 μg/24-hour | change in urine THA content from baseline to Day 56, median ([1]; 12 mg once daily, n=13): −66.00 24 μg/24-hour | urine tetrahydroaldosterone (THA) content, mean [1, 6]: 67.38 24 μg/24-hour | urine tetrahydroaldosterone (THA) content, median [1, 6]: 69.00 24 μg/24-hour | urine tetrahydroaldosterone (THA) content, mean ([1]; 12 mg once daily, n=13, Day 56): 9.08 24 μg/24-hour | urine tetrahydroaldosterone (THA) content, median ([1]; 12 mg once daily, n=13, Day 56): 5.00 24 μg/24-hour | effect on urinary tetrahydroaldosterone content ([1]; all three doses, 24-hour urine at end of active treatment vs baseline): significant reductions (p<0.0001) in tetrahydroaldosterone (THA) content | urine aldosterone content, mean ([1]; baseline urine aldosterone 10-50 μg/24-hour, 4 mg QD, Day 1 (baseline)): 26 μg/24-hour | urine aldosterone content, mean ([1]; baseline urine aldosterone 10-50 μg/24-hour, 4 mg QD, Day 56): 6 μg/24-hour | urine aldosterone content, mean ([1]; baseline urine aldosterone 10-50 μg/24-hour, 8 mg QD, Day 1 (baseline)): 33 μg/24-hour | urine aldosterone content, mean ([1]; baseline urine aldosterone 10-50 μg/24-hour, 8 mg QD, Day 56): 8 μg/24-hour | urine aldosterone content, mean ([1]; baseline urine aldosterone 10-50 μg/24-hour, 12 mg QD, Day 1 (baseline)): 29 μg/24-hour | urine aldosterone content, mean ([1]; baseline urine aldosterone 10-50 μg/24-hour, 12 mg QD, Day 56): 3 μg/24-hour | urine aldosterone content, mean ([1]; baseline urine aldosterone 50-100 μg/24-hour, 4 mg QD, Day 1 (baseline)): 74 μg/24-hour | urine aldosterone content, mean ([1]; baseline urine aldosterone 50-100 μg/24-hour, 4 mg QD, Day 56): 15 μg/24-hour | urine aldosterone content, mean ([1]; baseline urine aldosterone 50-100 μg/24-hour, 8 mg QD, Day 1 (baseline)): 69 μg/24-hour | urine aldosterone content, mean ([1]; baseline urine aldosterone 50-100 μg/24-hour, 8 mg QD, Day 56): 5 μg/24-hour | urine aldosterone content, mean ([1]; baseline urine aldosterone 50-100 μg/24-hour, 12 mg QD, Day 1 (baseline)): 68 μg/24-hour | urine aldosterone content, mean ([1]; baseline urine aldosterone 50-100 μg/24-hour, 12 mg QD, Day 56): 12 μg/24-hour | urine aldosterone content, mean ([1]; baseline urine aldosterone 100-250 μg/24-hour, 4 mg QD, Day 1 (baseline)): 123 μg/24-hour | urine aldosterone content, mean ([1]; baseline urine aldosterone 100-250 μg/24-hour, 4 mg QD, Day 56): 13 μg/24-hour | urine aldosterone content, mean ([1]; baseline urine aldosterone 100-250 μg/24-hour, 8 mg QD, Day 1 (baseline)): 69 μg/24-hour | urine aldosterone content, mean ([1]; baseline urine aldosterone 100-250 μg/24-hour, 8 mg QD, Day 56): 5 μg/24-hour | urine aldosterone content, mean ([1]; baseline urine aldosterone 100-250 μg/24-hour, 12 mg QD, Day 1 (baseline)): 68 μg/24-hour | urine aldosterone content, mean ([1]; baseline urine aldosterone 100-250 μg/24-hour, 12 mg QD, Day 56): 12 μg/24-hour | change in ARR from baseline to Day 56, mean ([2]; 4 mg once daily, n=10): −20.87 (ng/dL)/(mU/L) | change in ARR from baseline to Day 56, median ([2]; 4 mg once daily, n=10): −14.98 (ng/dL)/(mU/L) | ARR, mean [2, 4]: 24.56 (ng/dL)/(mU/L) | ARR, median [2, 4]: 21.37 (ng/dL)/(mU/L) | ARR, mean ([2]; 4 mg once daily, n=10, Day 14): 4.57 (ng/dL)/(mU/L) | ARR, median ([2]; 4 mg once daily, n=10, Day 14): 3.76 (ng/dL)/(mU/L) | ARR, mean ([2]; 4 mg once daily, n=10, Day 28): 2.57 (ng/dL)/(mU/L) | ARR, median ([2]; 4 mg once daily, n=10, Day 28): 1.76 (ng/dL)/(mU/L) | ARR, mean ([2]; 4 mg once daily, n=10, Day 42): 2.87 (ng/dL)/(mU/L) | ARR, median ([2]; 4 mg once daily, n=10, Day 42): 2.07 (ng/dL)/(mU/L) | ARR, mean ([2]; 4 mg once daily, n=10, Day 56): 3.70 (ng/dL)/(mU/L) | ARR, median ([2]; 4 mg once daily, n=10, Day 56): 2.52 (ng/dL)/(mU/L) | ARR, mean [2, 7]: 12.34 (ng/dL)/(mU/L) | ARR, median [2, 7]: 11.47 (ng/dL)/(mU/L) | change in ARR from baseline to Day 56, mean ([2]; 8 mg once daily, n=12): −10.61 (ng/dL)/(mU/L) | change in ARR from baseline to Day 56, median ([2]; 8 mg once daily, n=12): −6.99 (ng/dL)/(mU/L) | ARR, mean [2, 5]: 11.58 (ng/dL)/(mU/L) | ARR, median [2, 5]: 7.18 (ng/dL)/(mU/L) | ARR, mean ([2]; 8 mg once daily, n=12, Day 14): 0.8 (ng/dL)/(mU/L) | ARR, median ([2]; 8 mg once daily, n=12, Day 14): 0.31 (ng/dL)/(mU/L) | ARR, mean ([2]; 8 mg once daily, n=12, Day 28): 1.26 (ng/dL)/(mU/L) | ARR, median ([2]; 8 mg once daily, n=12, Day 28): 0.4 (ng/dL)/(mU/L) | ARR, mean ([2]; 8 mg once daily, n=12, Day 42): 0.74 (ng/dL)/(mU/L) | ARR, median ([2]; 8 mg once daily, n=12, Day 42): 0.29 (ng/dL)/(mU/L) | ARR, mean ([2]; 8 mg once daily, n=12, Day 56): 0.96 (ng/dL)/(mU/L) | ARR, median ([2]; 8 mg once daily, n=12, Day 56): 0.27 (ng/dL)/(mU/L) | ARR, mean [2, 8]: 4.19 (ng/dL)/(mU/L) | ARR, median [2, 8]: 2.46 (ng/dL)/(mU/L) | change in ARR from baseline to Day 56, mean ([2]; 12 mg once daily, n=13): −15.61 (ng/dL)/(mU/L) | change in ARR from baseline to Day 56, median ([2]; 12 mg once daily, n=13): −13.97 (ng/dL)/(mU/L) | ARR, mean [2, 6]: 17.75 (ng/dL)/(mU/L) | ARR, median [2, 6]: 17.8 (ng/dL)/(mU/L) | ARR, mean [2, 9]: 9.3 (ng/dL)/(mU/L) | ARR, median [2, 9]: 13.72 (ng/dL)/(mU/L) | ARR upon drug withdrawal [2, 10]: ARR values returned towards baseline values | change in ARR from baseline to Day 56, mean ([2]; all doses combined, n=35): −15.40 (ng/dL)/(mU/L) | change in ARR from baseline to Day 56, median ([2]; all doses combined, n=35): −11.76 (ng/dL)/(mU/L) | LSM change in lognormal values of ARR from baseline ([2]; all patients, Day 1 to Day 56, FIG. 2A, p<0.0001): −2.54 (95% CI −2.9 to −2.2) | effect on ARR from baseline to day 56 ([2]; all three doses (4 mg, 8 mg, 12 mg)): significant reductions (p<0.0001) in ARR from baseline to day 56 | effect on ARR over time ([2]; all three doses, baseline to day 14, 28, 42 and 56): rapid and significant (p<0.0001) reductions in ARR; also recorded: rapid and significant reductions (p<0.0001) in ARR | office blood pressure (oSBP), mean [3, 4]: 146.95 mmHg | office blood pressure (oSBP), median [3, 4]: 144.00 mmHg | office blood pressure (oSBP), mean ([3]; 4 mg once daily, n=10, Day 14): 134.55 mmHg | office blood pressure (oSBP), median ([3]; 4 mg once daily, n=10, Day 14): 136.25 mmHg | office blood pressure (oSBP), mean ([3]; 4 mg once daily, n=10, Day 28): 133.70 mmHg | office blood pressure (oSBP), median ([3]; 4 mg once daily, n=10, Day 28): 130.50 mmHg | office blood pressure (oSBP), mean ([3]; 4 mg once daily, n=10, Day 42): 134.90 mmHg | office blood pressure (oSBP), median ([3]; 4 mg once daily, n=10, Day 42): 132.75 mmHg | office blood pressure (oSBP), mean ([3]; 4 mg once daily, n=10, Day 56): 133.00 mmHg | office blood pressure (oSBP), median ([3]; 4 mg once daily, n=10, Day 56): 133.75 mmHg | office blood pressure (oSBP), mean [3, 7]: 142.20 mmHg | office blood pressure (oSBP), median [3, 7]: 145.25 mmHg | office blood pressure (oSBP), mean [3, 5]: 148.00 mmHg | office blood pressure (oSBP), median [3, 5]: 147.00 mmHg | office blood pressure (oSBP), mean ([3]; 8 mg once daily, n=12, Day 14): 137.88 mmHg | office blood pressure (oSBP), median ([3]; 8 mg once daily, n=12, Day 14): 137.50 mmHg | office blood pressure (oSBP), mean ([3]; 8 mg once daily, n=12, Day 28): 135.08 mmHg | office blood pressure (oSBP), median ([3]; 8 mg once daily, n=12, Day 28): 133.25 mmHg | office blood pressure (oSBP), mean ([3]; 8 mg once daily, n=12, Day 42): 137.83 mmHg | office blood pressure (oSBP), median ([3]; 8 mg once daily, n=12, Day 42): 134.50 mmHg | office blood pressure (oSBP), mean ([3]; 8 mg once daily, n=12, Day 56): 134.42 mmHg | office blood pressure (oSBP), median ([3]; 8 mg once daily, n=12, Day 56): 135.75 mmHg | office blood pressure (oSBP), mean [3, 8]: 142.46 mmHg | office blood pressure (oSBP), median [3, 8]: 139.75 mmHg | office blood pressure upon drug withdrawal [3, 10]: blood pressure values returned towards baseline levels | effect on office blood pressure ([3]; each dose arm, sustained over active treatment period): rapid and significant (p≤0.001) decrease in office blood pressure

From US20260124184A1, “ONCE DAILY ALDOSTERONE SYNTHASE INHIBITOR (R)-(+)-5-(P-CYANOPHENYL)-5,6,7,8-TETRAHYDROIMIDAZO[L,5-A]PYRIDINE” (priority 2022, published 2026)
